Source: PubChem BioAssay (NCI)
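The compound was tested at five concentrations on cells cultured in 96-well plates, with a 48-hour exposure period. GI50 marks 50% less growth. At the TGI there is no net growth.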

Experiments:
Assay in all cases: growth of human tumour cells (NCI), 48 h
[1] = tested on: 786-0 renal
[2] = tested on: A498 renal
[3] = tested on: A549 NSCLC
[4] = tested on: ACHN renal
[5] = tested on: CAKI-1 renal
[6] = tested on: CCRF-CEM leukemia
[7] = tested on: COLO 205 colon
[8] = tested on: DLD-1 colon
[9] = tested on: DMS 114 small cell lung
[10] = tested on: DMS 273 small cell lung
[11] = tested on: EKVX NSCLC
[12] = tested on: HCC-2998 colon
[13] = tested on: HCT-116 colon
[14] = tested on: HCT-15 colon
[15] = tested on: HL-60(TB) leukemia
[16] = tested on: HOP-18 NSCLC
[17] = tested on: HOP-62 NSCLC
[18] = tested on: HOP-92 NSCLC
[19] = tested on: HT29 colon
[20] = tested on: IGROV1 ovarian
[21] = tested on: K-562 leukemia
[22] = tested on: KM12 colon
[23] = tested on: KM20L2 colon
[24] = tested on: LOX IMVI melanoma
[25] = tested on: LXFL 529 NSCLC
[26] = tested on: M14 melanoma
[27] = tested on: M19-MEL melanoma
[28] = tested on: MALME-3M melanoma
[29] = tested on: MOLT-4 leukemia
[30] = tested on: NCI-H226 lung
[31] = tested on: NCI-H23 lung
[32] = tested on: NCI-H460 lung
[33] = tested on: NCI-H522 lung
[34] = tested on: OVCAR-3 ovarian
[35] = tested on: OVCAR-4 ovarian
[36] = tested on: OVCAR-5 ovarian
[37] = tested on: OVCAR-8 ovarian
[38] = tested on: RPMI-8226 leukemia
[39] = tested on: RXF 393 renal
[40] = tested on: RXF-631 renal
[41] = tested on: SF-268 CNS
[42] = tested on: SF-295 CNS
[43] = tested on: SF-539 CNS
[44] = tested on: SK-MEL-2 melanoma
[45] = tested on: SK-MEL-28 melanoma
[46] = tested on: SK-MEL-5 melanoma
[47] = tested on: SK-OV-3 ovarian
[48] = tested on: SN12C renal
[49] = tested on: SNB-19 CNS
[50] = tested on: SNB-75 CNS
[51] = tested on: SNB-78 CNS
[52] = tested on: SW-620 colon
[53] = tested on: TK-10 renal
[54] = tested on: U251 CNS
[55] = tested on: UACC-257 melanoma
[56] = tested on: UACC-62 melanoma
[57] = tested on: UO-31 renal
[58] = tested on: XF 498 CNS

With `CC(C)N(C(C)C)[PH+]1O[PH+](N(C(C)C)C(C)C)O[PH+](N(C(C)C)C(C)C)O[PH+](N(C(C)C)C(C)C)O1.[C-]#[O+].[C-]#[O+].[C-]#[O+].[C-]#[O+].[C-]#[O+].[C-]#[O+].[C-]#[O+].[C-]#[O+].[Mo].[Mo]` (stereo unspecified) the GI50 [1] was greater than 100 µM, the TGI [1] was greater than 100 µM and the GI50 [2] was greater than 100 µM. The TGI [2] was greater than 100 µM, the GI50 [3] was greater than 100 µM and the TGI [3] was greater than 100 µM. The GI50 [4] was greater than 100 µM, the TGI [4] was greater than 100 µM and the GI50 [5] was greater than 100 µM. For the same molecule, the TGI [5] was greater than 100 µM, the GI50 [6] was greater than 100 µM and the TGI [6] was greater than 100 µM. For the same molecule, the GI50 [7] was greater than 100 µM, the TGI [7] was greater than 100 µM and the GI50 [8] was greater than 100 µM. It also gave a TGI [8] greater than 100 µM, a GI50 [9] greater than 100 µM and a TGI [9] greater than 100 µM. It also gave a GI50 [10] greater than 100 µM, a TGI [10] greater than 100 µM and a GI50 [11] greater than 100 µM. The TGI [11] was greater than 100 µM, the GI50 [12] was greater than 100 µM and the TGI [12] was greater than 100 µM. It also gave a GI50 [13] greater than 100 µM, a TGI [13] greater than 100 µM and a GI50 [14] greater than 100 µM. For the same molecule, the TGI [14] was greater than 100 µM, the GI50 [15] was greater than 100 µM and the TGI [15] was greater than 100 µM. The GI50 [16] was greater than 100 µM, the TGI [16] was greater than 100 µM and the GI50 [17] was greater than 100 µM. It also gave a TGI [17] greater than 100 µM, a GI50 [18] greater than 100 µM and a TGI [18] greater than 100 µM. For the same molecule, the GI50 [19] was greater than 100 µM, the TGI [19] was greater than 100 µM and the GI50 [20] was greater than 100 µM. For the same molecule, the TGI [20] was greater than 100 µM, the GI50 [21] was greater than 100 µM and the TGI [21] was greater than 100 µM. For the same molecule, the GI50 [22] was greater than 100 µM, the TGI [22] was greater than 100 µM and the GI50 [23] was greater than 100 µM. For the same molecule, the TGI [23] was greater than 100 µM, the GI50 [24] was greater than 100 µM and the TGI [24] was greater than 100 µM. For the same molecule, the GI50 [25] was greater than 100 µM, the TGI [25] was greater than 100 µM and the GI50 [26] was greater than 100 µM. It also gave a TGI [26] greater than 100 µM, a GI50 [27] greater than 100 µM and a TGI [27] greater than 100 µM. The GI50 [28] was greater than 100 µM, the TGI [28] was greater than 100 µM and the GI50 [29] was greater than 100 µM. The TGI [29] was greater than 100 µM, the GI50 [30] was greater than 100 µM and the TGI [30] was greater than 100 µM. It also gave a GI50 [31] greater than 100 µM, a TGI [31] greater than 100 µM and a GI50 [32] greater than 100 µM. It also gave a TGI [32] greater than 100 µM, a GI50 [33] greater than 100 µM and a TGI [33] greater than 100 µM. It also gave a GI50 [34] greater than 100 µM, a TGI [34] greater than 100 µM and a GI50 [35] greater than 100 µM. It also gave a TGI [35] greater than 100 µM, a GI50 [36] greater than 100 µM and a TGI [36] greater than 100 µM. The GI50 [37] was greater than 100 µM, the TGI [37] was greater than 100 µM and the GI50 [38] was greater than 100 µM. The TGI [38] was greater than 100 µM, the GI50 [39] was greater than 100 µM and the TGI [39] was greater than 100 µM. For the same molecule, the GI50 [40] was greater than 100 µM, the TGI [40] was greater than 100 µM and the GI50 [41] was greater than 100 µM. For the same molecule, the TGI [41] was greater than 100 µM, the GI50 [42] was greater than 100 µM and the TGI [42] was greater than 100 µM. It also gave a GI50 [43] greater than 100 µM, a TGI [43] greater than 100 µM and a GI50 [44] greater than 100 µM. For the same molecule, the TGI [44] was greater than 100 µM, the GI50 [45] was greater than 100 µM and the TGI [45] was greater than 100 µM. It also gave a GI50 [46] greater than 100 µM, a TGI [46] greater than 100 µM and a GI50 [47] greater than 100 µM. The TGI [47] was greater than 100 µM, the GI50 [48] was greater than 100 µM and the TGI [48] was greater than 100 µM. The GI50 [49] was greater than 100 µM, the TGI [49] was greater than 100 µM and the GI50 [50] was greater than 100 µM. For the same molecule, the TGI [50] was greater than 100 µM, the GI50 [51] was greater than 100 µM and the TGI [51] was greater than 100 µM. It also gave a GI50 [52] greater than 100 µM, a TGI [52] greater than 100 µM and a GI50 [53] greater than 100 µM. The TGI [53] was greater than 100 µM, the GI50 [54] was greater than 100 µM and the TGI [54] was greater than 100 µM. The GI50 [55] was greater than 100 µM, the TGI [55] was greater than 100 µM and the GI50 [56] was greater than 100 µM. It also gave a TGI [56] greater than 100 µM, a GI50 [57] greater than 100 µM and a TGI [57] greater than 100 µM. The GI50 [58] was greater than 100 µM and the TGI [58] was greater than 100 µM.
